Laboratory results taken from PMC10688034 (ACS Omega, 2023).

Tests used:
SARS-CoV-2 [1] = assay type: cell-based; settings: Calu-3, independently of the time of administration
Calu-3 cells = settings: MTT
in vitro = settings: African green monkey
SARS-CoV-2 [2] = assay type: cell-based
[3] = cited from earlier work
Vero E6 cells = settings: MTT, within the concentration range tested (1-80 μM)

SMILES | effect on viral replication (in words) (SARS-CoV-2 [1]) | cytotoxicity (in words) (Calu-3 cells; concentration up to 20 μM) | cell viability at the higher concentrations tested (in words) (Calu-3 cells; concentrations above 20 μM) | IC50 (in vitro) [µM] | LR (reduction of viral load) (SARS-CoV-2 [2]) [log] | decomposition in cell culture medium after 6 h [3] | cytotoxicity (in words) (Vero E6 cells)
C[C@H]1[C@@H](O)O[C@@H]2O[C@@]3(C)CC[C@H]4[C@H](C)CC[C@@H]1[C@@]24OO3 [DHA, dihydroartemisinin] | slightly interfere with viral replication | noncytotoxic | slightly altering cell viability | 21.6 | < 1 | up to 70% | 
C[C@H](CCC(=O)O)[C@H]1CC[C@H]2[C@@H]3[C@@H](O)C[C@@H]4C[C@H](O)CC[C@]4(C)[C@H]3CC[C@]12C [UDCA, ursodeoxycholic acid] |  |  |  |  | < 1 |  | noncytotoxic
